Measured values as given in US20200000091A1, “Microbe Proliferation Inhibitor, Method for Inhibiting Proliferation of Microbes, UV Resistance-Improving Agent, Method for Improving UV Resistance, Artificial Protein Formation Body and method for Manufacturing Same, Artificial Protein Solution, and Coloring Agent” (Keio University, priority 2017, published 2020).

System: Escherichia coli wild strain (W3110)
Test: Growth of Escherichia coli in M9 medium, absorbance (OD600) measured every hour
Assay type: cell-based
Details: 1 mM xanthurenic acid in M9 medium (Tris-HCl buffer pH 8), compared with Comparative Example 1 (no xanthurenic acid), FIG. 1
Description: An Escherichia coli wild strain (W3110) was cultured in M9 medium (7 mg/ml K2HPO4, 3 mg/ml KH2PO4, 0.5 mg/ml NaCl, 1 mg/ml NH4Cl, 1 mg/ml glucose, 1 mM MgSO4.7H2O, 14.7 μg/ml CaCl2)) containing 10 μg/ml thiamine. In preparing the medium, a Tris-HCl buffer solution (pH 8) was used instead of water in consideration of the solubility of xanthurenic acid. The obtained overnight cultures were diluted into 0.8% with 20 ml of a fresh medium containing 1 mM xanthurenic acid (Wako Pure Chemical Industries, Ltd.) to obtain a sample solution. Absorbance (OD600) was measured as to this sample solution every hour by using Nano Photometer (Implen GmbH).
The preparation and measurement of a sample solution were performed in the same way as in Example 1 except that the overnight cultures were diluted with a fresh medium containing no xanthurenic acid.

O=C(O)c1cc(O)c2cccc(O)c2n1 [Example 1, xanthurenic acid]
absorbance (OD600); proliferation of Escherichia coli: proliferation of Escherichia coli was inhibited
